Read-outs that look alike come from different tables or passages of the source.
Tests used:
[1] = biological target: T1, native CFTR, genotype F508del/F508del (Homo sapiens, UniProt P13569, DEL508-508); assay: Ussing chamber CFTR-mediated short-circuit current (Isc) in F508del/F508del human bronchial epithelial cells; type: cell-based; settings: for EC50: F508del/F508del epithelia of hBE cells, basal F508del‐CFTR expression, Isc, 27°C, read-out: EC50 (μM) (95% CI); for Emax: HBE, read-out: Maximal effect (%) (95% CI)
T1 construct: For functional studies of native CFTR, we used primary cultures of human bronchial epithelial cells; host or cells: primary human bronchial epithelial cells, F508del/F508del, air-liquid interface cultures
T1 sequence (P13569 with tags, fused parts or gaps DEL508-508): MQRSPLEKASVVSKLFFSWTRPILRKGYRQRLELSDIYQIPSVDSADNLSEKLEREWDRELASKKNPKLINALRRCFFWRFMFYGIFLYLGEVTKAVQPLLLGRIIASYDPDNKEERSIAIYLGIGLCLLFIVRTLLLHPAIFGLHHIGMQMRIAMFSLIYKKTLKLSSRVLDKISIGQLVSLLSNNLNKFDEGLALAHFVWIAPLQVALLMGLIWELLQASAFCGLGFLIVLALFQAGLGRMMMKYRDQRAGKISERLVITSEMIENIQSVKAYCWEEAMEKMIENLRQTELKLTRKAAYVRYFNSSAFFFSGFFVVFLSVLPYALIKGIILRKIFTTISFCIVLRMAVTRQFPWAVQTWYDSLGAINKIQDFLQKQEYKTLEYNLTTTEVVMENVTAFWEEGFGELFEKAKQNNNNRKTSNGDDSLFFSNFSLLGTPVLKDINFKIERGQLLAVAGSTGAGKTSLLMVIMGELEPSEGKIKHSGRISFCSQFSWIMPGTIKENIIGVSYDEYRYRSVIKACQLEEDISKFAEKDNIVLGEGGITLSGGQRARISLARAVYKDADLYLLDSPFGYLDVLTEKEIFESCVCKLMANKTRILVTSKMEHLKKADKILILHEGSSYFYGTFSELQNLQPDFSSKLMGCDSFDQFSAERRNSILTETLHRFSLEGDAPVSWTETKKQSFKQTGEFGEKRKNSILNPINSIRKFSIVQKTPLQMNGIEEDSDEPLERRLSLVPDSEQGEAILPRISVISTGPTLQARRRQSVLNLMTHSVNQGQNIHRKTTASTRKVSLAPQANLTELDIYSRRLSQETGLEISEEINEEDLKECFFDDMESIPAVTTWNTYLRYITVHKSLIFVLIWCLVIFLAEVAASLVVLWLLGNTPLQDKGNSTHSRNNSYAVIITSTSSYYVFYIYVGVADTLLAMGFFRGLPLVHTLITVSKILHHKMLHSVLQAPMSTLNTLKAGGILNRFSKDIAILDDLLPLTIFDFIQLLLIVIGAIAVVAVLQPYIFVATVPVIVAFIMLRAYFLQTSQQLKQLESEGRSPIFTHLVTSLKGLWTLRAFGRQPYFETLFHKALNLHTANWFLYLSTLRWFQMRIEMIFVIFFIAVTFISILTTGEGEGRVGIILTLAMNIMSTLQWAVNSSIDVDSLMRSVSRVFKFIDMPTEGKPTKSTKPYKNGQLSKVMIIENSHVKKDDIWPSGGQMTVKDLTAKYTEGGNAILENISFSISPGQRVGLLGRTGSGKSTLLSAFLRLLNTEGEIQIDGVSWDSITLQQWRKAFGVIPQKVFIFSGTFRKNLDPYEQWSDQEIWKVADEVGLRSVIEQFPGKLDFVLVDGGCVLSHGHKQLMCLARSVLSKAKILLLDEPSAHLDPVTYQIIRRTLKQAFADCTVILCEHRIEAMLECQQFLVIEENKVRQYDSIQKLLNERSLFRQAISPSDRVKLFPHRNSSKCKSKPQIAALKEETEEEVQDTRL
Description: For functional studies of native CFTR, we used primary cultures of human bronchial epithelial cells of genotypes F508del/F508del and F508del/G551D. Passage 1 (P1) human bronchial epithelial cells from SH Randell (University of North Carolina [UNC] Cystic Fibrosis Center Tissue Procurement and Cell Culture Core) were differentiated at an air–liquid interface as described by Neuberger et al., ([2011]) with some modifications. The research conducted on human cells at UNC has been verified as compliant with Pfizer policies, including institutional review board or institutional ethics committee approval. Cells were thawed and expanded in BEGM™ Bronchial Epithelial Cell Growth Medium (cat. no. CC‐3170, Lonza, USA) supplemented with retinoic acid (10 nM) and banked at P2. For functional assays, P2 cells were expanded to P4, and 5 × 10^5 P4 human bronchial epithelial cells were seeded in growth medium on Snapwell filter inserts (cat. no. 3801, Corning, NY, USA). Cells were switched to differentiation medium the following day and cultured submerged for 3 days before the medium was removed from the apical membrane to establish an air–liquid interface. Thereafter, the basolateral medium was changed every 2–3 days and mucus washed from the apical membrane every 2–3 weeks and the day prior to use starting 21 days after initiating air–liquid interface culture.
After >30 days of air–liquid interface culture on Snapwell filter inserts, human bronchial epithelial cells formed well differentiated, electrically tight epithelia (Rt > 200 Ω cm^2). Prior to study, F508del/F508del and F508del/G551D human bronchial epithelial cell cultures were incubated at 37°C and 5% CO2.
Epithelia were mounted in Ussing chambers and data acquired and analysed as described above for Ussing chamber studies of FRT cells heterologously expressing CFTR with the following exceptions. Both the apical and basolateral membranes were bathed in solutions containing (mM): 137 NaCl, 4 KCl, 1.8 CaCl2, 1 MgCl2, 10 Na HEPES, and 10 glucose (pH 7.4 with NaOH). Epithelia of F508del/G551D human bronchial epithelial cells were studied at 35°C, whereas those of F508del/F508del human bronchial epithelial cells were assayed at 27°C to maintain the apical membrane expression of F508del‐CFTR. After cancelling voltage offsets, transepithelial voltage was clamped at 0 mV and short‐circuit current (Isc) recorded continuously. The protocol to record CFTR‐mediated Isc was the same as for ICl ^apical measurements except that amiloride (30 μM, apical solution) was added to inhibit the epithelial Na^+ channel before forskolin (10 μM, apical and basolateral solutions) addition.

[2] = biological target: F508del‐CFTR (Homo sapiens, UniProt P13569, DEL508-508); assay: Single-channel recording in excised inside-out membrane patches, F508del‐CFTR; type: biochemical; design: expressed in transfected cells; BHK cells from MD Amaral; settings: for reduction of interburst interval (IBI): single active channel; for Emax: read-out: Maximal effect (%) (95% CI)
Chain of F508del‐CFTR (P13569 with tags, fused parts or gaps DEL508-508): as above
Experimental: For CFTR studies using automated electrophysiology and single-channel recording, we used baby hamster kidney (BHK) cells (RRID:CVCL_1915) and human embryonic kidney (HEK) 293 cells (RRID:CVCL_0045) stably expressing wild-type human CFTR and the CFTR variants F508del- and […] et al., [2002]; Xu et al., [2014]). […] HEK cells expressing CFTR variants were generated using the Flp-InTM system as described above for F508del- and G551D-CFTR-expressing FRT cells. They were cultured in Dulbecco's modified Eagle's medium (glucose, 1.5 g·L^-1; sodium pyruvate, 110 mg·L^-1) supplemented with 10% FBS (PAA Laboratories), GlutaMAXTM and hygromycin-B (150 μg·ml^-1; InvitrogenTM, Thermo Fisher Scientific) at 37°C in a humidified atmosphere with 5% CO2. Prior to study, F508del-CFTR expressed in HEK cells was trafficked to the plasma membrane by low temperature incubation (27°C for 24-72 h). […] CFTR Cl^- channels were recorded in excised inside-out membrane patches using an Axopatch 200B patch-clamp amplifier and pCLAMP software (version 10.3) (RRID:SCR_011323) (both from Molecular Devices, San Jose, CA, USA) (Sheppard & Robinson, [1997]). […] Within 2 min after membrane patch excision, we added the catalytic subunit of protein kinase A (PKA; 75 nM) and ATP (1 mM) to the intracellular solution to activate CFTR Cl^- channels. To minimise channel rundown, we added PKA and millimolar concentrations of ATP to all intracellular solutions and clamped voltage at -50 mV. […] We reduced the ATP concentration when testing CFTR potentiators on wild-type CFTR to observe their effects more clearly. […] Instead, specific interventions with CFTR potentiators were compared with the pre-intervention control period made with the same concentration of ATP and PKA, but without test compounds. […] To determine channel number, we used the maximum number of simultaneous channel openings observed during an experiment (Cai et al., [2006]). To minimise errors, we used experimental conditions that robustly potentiate channel activity and verified that recordings were of sufficient length to ascertain the correct number of channels ([…] et al., [1994]). […] Therefore, Po values for G551D-CFTR are expressed as apparent Po (Po(app)) values. Single-channel currents were directly acquired to a computer hard disc after filtering at a corner frequency (f c) of 500 Hz with an eight-pole Bessel filter (model LHBF-48×; npi electronic GmbH, Tamm, Germany) and digitising at a sampling rate of 5 kHz using a Digidata 1440A interface (Molecular Devices) and pCLAMP software. To measure single-channel current amplitude (i), Gaussian distributions were fit to current amplitude histograms. For Po and burst analyses, lists of open- and closed-times were created using a half-amplitude crossing criterion for event detection and dwell-time histograms constructed as previously described (Sheppard & Robinson, [1997]); transitions < 1 ms were excluded from the analysis (eight-pole Bessel filter rise time [T 10-90] ~ 0.73 ms at f c = 500 Hz). Histograms were fitted with one or more component exponential functions using the maximum likelihood method. […] The mean interburst interval (TIBI) was calculated using the equation (Cai et al., [2006]): (1) Po=Tb/TMBD+TIBI, where T b = (mean burst duration) × (open probability within a burst). Mean burst duration (T MBD) and open probability within a burst (Po[burst]) were determined directly from experimental data using pCLAMP software.

[3] = F508del‐CFTR Cl− channels, excised inside-out patches, 23°C, data normalised to ivacaftor 1 μM, read-out: EC50 (μM) (95% CI)
[4] = low temperature-rescued F508del‐CFTR, ATP 1 mM, PKA 75 nM, ~23°C
[5] = low temperature-rescued F508del‐CFTR, ATP 1 mM, PKA 75 nM, ~23°C, read-out: EC50 for potentiation of Po
[6] = low temperature-rescued F508del‐CFTR, compound 10 μM, ATP 1 mM
[7] = low temperature-rescued F508del‐CFTR, compound 1 μM, ATP 1 mM

| SMILES | EC50 [1] [µM] | Emax [1] [%] | EC50 [2, 3] [µM] | Po max [2, 4] | EC50 [2, 5] [µM] | Po max of ATP-dependence in presence of compound ([2]; low temperature-rescued F508del‐CFTR, compound 300 nM, ATP 0.1–3 mM) | enhancement of Po [2, 6] [fold] | reduction of interburst interval (IBI) [2, 6] [fold] | Emax [2] [%] | enhancement of Po [2, 7] [fold] | reduction of interburst interval (IBI) [2, 7] [fold] |
| --- | --- | --- | --- | --- | --- | --- | --- | --- | --- | --- | --- |
| Cc1ncccc1CNC(=O)c1ccc2c(c1)CC[C@H]1C[C@](O)(CCC(F)(F)F)CC[C@]21Cc1ccccc1 (racemic) [CP‐628006, rac‐(4bR,7R,8aS)‐4b‐benzyl‐7‐hydroxy‐N‐((2‐methylpyridin‐3‐yl)methyl)‐7‐(3,3,3‐trifluoropropyl)‐4b,5,6,7,8,8a,9,10‐octahydrophenanthrene‐2‐carboxamide] | 0.062 | 56 | 0.5 | 0.62 | 0.4 | 0.33 | 13 ± 5 | 15 | 144 |  |  |
| CC(C)(C)c1cc(C(C)(C)C)c(NC(=O)c2c[nH]c3ccccc3c2=O)cc1O [ivacaftor, reference compound] | 0.002 | 102 | 0.008 | 0.51 | 0.01 |  |  |  | 103 | 9 ± 5 | 15 |

Reference: paper PMC9304199, “A small molecule CFTR potentiator restores ATP‐dependent channel gating to the cystic fibrosis mutant G551D‐CFTR” (British Journal of Pharmacology, 2022)
